Data from US6878751B1, “Administration of resveratrol to treat inflammatory respiratory disorders” (Imperial College of Science Technology and Medicine, priority 2000, dated 2005).

How the values were obtained:
COPD patients = test: Pulmonary resveratrol clinical evaluation in COPD (Example 9); assay type: in vivo, human; settings: inhaled, 4, 8 or 20 mg/day
Method: Pulmonary administration of resveratrol for COPD may be evaluated by the method preceding in Example 8, using the inhaled doses specified in Example 4. Specifically the subgroups receive either 0 (placebo), 4, 8, or 20 mg/day resveratrol in inhaled doses of 0, 1, 2, or 5 mg administered 4 times daily for th duration of the study.

[1] = system: Steroid naive patients suffering from COPD; test: Oral or inhaled resveratrol vs inhaled glucocorticoids in COPD, steroid naive patients (Example 5); assay type: in vivo, human; settings: 12 to 24 months
Description: Steroid naive patients suffering from different COPDs patients are selected and divided into populations according to the COPD. Chronic bronchitis populations and emphysema populations are appropriately studied. The populations are divided in terms of progression of their COPD into subpopulations early or mild, mid-stage or moderate, and advanced impairment of lung function. The study is generally patterned after the asthma studies with modifications appropriate to the clinical and histopathologic evaluation of COPD disease, and the references listed in the preceding examples may be applied as appropriate. One major difference is that the COPD study should last for 1 to 2 years or longer, because of the chronic nature of COPD. Each subpopulation is divided equally and randomly into three groups. […]
Patients are medically monitored for clinical symptoms of COPD throughout the study, including frequency and severity of hypoxemic and respiratiry acidotic exacerbations. […] In addition exhaled nitric oxide (NO) and carbon monoxide (CO) levels may be measured at more frequent intervals, such as every other week. Forced expiratory volume (FEV) and forced inspiratory volume (FIV) are also evaluated to measure airway patency as a direct measure of clinical morbidity and to determine correlation the histopathologic and other indicators of clinical disease. […]

[2] = system: IL-8 release, BEAS-2B cells; test: IL-8 release (ELISA) in IL-1β stimulated BEAS-2B cells; assay type: cell-based; settings: Homo sapiens, 1 ng/ml IL-1β, read-out: EC50 for inhibition of the release of IL-8
Method: The human airway epithelial cell line A549 may be employed to study resveratrol inhibition of the release of IL-8 (interleukin 8) and GM-CSF (granulocyte macrophage-colony stimulating factor) by a 1 ng/ml stimulation with IL-1β (interleukin 1β). A549 cells, BEAS-2B cells and 16HBE-16o^− cells were stimulated with 1 ng/ml levels of IL-1β in the presence of resveratrol.
Cells, including the A549 cells, were cultured in Dulbecco's modified Eagle's medium (DMEM) 10% (v/v) fetal calf serum (FCS), 100 μg/ml penicillin and 100 μg/ml streptomycin. IL-8 release was measured by commercially available ELISA kit (R&D Systems).

[3] = system: patients resistant to existing pulmonary steroid therapy; test: Resveratrol supplementation vs increasing steroid dose in steroid resistant asthma (Example 7); assay type: in vivo, human; settings: oral or pulmonary resveratrol added to inhaled steroid
Description: Instead of steroid naive chid asthmatic patients (children are chosen because of the increased gravity of systemic endocrine effects for children, but adults can be analogously studied) selected in Example 6, patients reesistant to existing pulmonary steroid therapy are selected. The study is otherwise analogous to the study in […], except that in the first two groups the oral or inhaled resveratrol supplements the inhaled steroid dose being administered prior to the beginning of the evaluation, while the third group has the dosage of inhaled steroid being administered prior to the study doubled. Alternatively the third group can receive oral prednisone in the appropriate systemic dose. The evaluation is otherwise performed identically to that in Example 6.

[4] = system: Smokers with no disease or mild COPD; test: Oral resveratrol for chemoprevention of COPD in smokers (Example 10); assay type: in vivo, human; settings: 2 to 5 years
Method: Resveratrol is evaluated clinically for efficacy in chemoprevention of COPD in smokers. The study is generally patterned after the asthma studies with modifications appropriate to the clinical and histopathologic evaluation of COPD disease, and the references listed in the preceding examples may be applied as appropriate. Smokers with no disease or mild COPD are treated once or more per day with gelatin capsules containing resveratrol. The population of smokers are subdivided into subpopulations: clinically and histopathologically disease free, clinically asymptomatic with histopathologic inflammation and mildly COPD symptomatic, meaning some chronic bronchitis but no pulmonary impairment causing hypoxemia or acidosis. Each subpopulation is divided randomly and blindly into four approximately equal groups that receive either 0 (placebo), 200, 2000, or 3000 mg/day resveratrol […] in oral doses of 0, 50, 500, or 750 mg administered 4 times daily for 2 to 5 years. […]
Patients are medically monitored for clinical symptoms of COPD throughout the study, including onset of symptoms and frequency and severity thereof. […] Forced expiratory volume (FEV) and forced inspiratory volume (FIV) are also evaluated to measure airway patency as a direct measure of clinical morbidity and to determine correlation the histopathologic and other indicators of clinical disease. […]

## Oc1ccc(/C=C/c2cc(O)cc(O)c2)cc1 [Resveratrol, 3,5,4′-trihydroxystilbene]
COPD patients
  efficacy in treating COPD: effective for treating COPD
[1]; oral or pulmonary resveratrol vs pulmonary budenoside
  efficacy in treating COPD compared with inhaled steroids: more effective for treating COPD than inhaled steroids
[1]; oral or pulmonary resveratrol
  systemic effects compared with inhaled glucocorticosteroids: fewer systemic effects
[2]
  EC50: 111 ± 2.9 µM
[3]
  systemic side effects compared with doubling steroid dosage: reduced systemic side effects compared with doubling steroid dosage
[3]; steroid resistant asthma
  efficacy as supplement to existing steroid therapy vs doubling inhaled steroid dose: as or more effective as supplements to existing steroid therapy for antiinflammatory treatment than doubling inhaled steroid dose
[4]; oral, relative to those expected from steroid administration
  side effects: without significant side effects
[4]; oral, 200, 2000 or 3000 mg/day
  efficacy in chemoprevention of COPD in smokers: effective for chemoprevention of COPD in smokers
